In ChEMBL document CHEMBL3758115, “Bacaryolanes A-C, Rare Bacterial Caryolanes from a Mangrove Endophyte” (2015):

Tests used:
[1] = tested on: Bacillus spizizenii; assay: Antibacterial activity against Bacillus subtilis ATCC 6633 at 50 ug/disk after 24 hrs; type: functional; conditions: ATCC 6633, 24 h, read-out: IZ
[2] = tested on: Bacillus spizizenii; assay: Antibacterial activity against Bacillus subtilis ATCC 6633 at 0.25 ug/disk after 24 hrs; type: functional; conditions: ATCC 6633, 24 h, read-out: IZ

Row | SMILES | zone of inhibition at 50 µg/disc [1] | zone of inhibition at 0.25 µg/disc [2]
1 | CC1(C)C[C@@H]2[C@@H]1[C@@H](O)C[C@@]1(C)CCC[C@]2(O)C1 | 10 mm | 
2 | O=C(N[C@H](CO)[C@H](O)c1ccc([N+](=O)[O-])cc1)C(Cl)Cl [CHLORAMPHENICOL] |  | 28 mm
